These are literature values, as cited in patent US20250325691A1, “HER2-GST-SN-38 COMPLEX, AND PHARMACEUTICAL COMPOSITION COMPRISING SAME FOR PREVENTING OR TREATING PROLIFERATIVE DISEASES” (priority 2022, published 2025).

In the data set the test system is various cancer cells. As to conditions: various cancer cells in vitro; cited from earlier work.

`CCc1c2c(nc3ccc(O)cc13)-c1cc3c(c(=O)n1C2)COC(=O)[C@]3(O)CC` [SN-38, 7-ethyl-10-hydroxycamptothecin]: the “cytotoxic activity, times more potent than irinotecan” value is given as “up to 1,000 times”.
